From PubChem BioAssay AID2060330 (Molecular Pharmacology Branch, DTP, NCI, 2025)

Test system: LG0703-F948-PDC spheroids with HUVEC/MSC, viability
Assay: Anticancer human tumor LG0703-F948-PDC patient-derived lung adenocarcinoma cell line growth inhibition [IpAb]
Settings: for IC50: curve of first compound; for viability, T/C: stronger effect = lower value
How it was run: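 Combinations with ipatasertib or abemaciclib were tested on tumour spheroids holding HUVEC (25%) and MSC (15%) alongside 60% malignant cells. Top concentration was at or near clinical Cmax (10 microM if undefined), descending in half-log steps.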

[1] = second compound 0.01 µM, first compound 0.0316 µM
[2] = second compound 0.01 µM, first compound 0.1 µM
[3] = second compound 0.0316 µM, first compound 0.0316 µM
[4] = second compound 0.0316 µM, first compound 0.1 µM
[5] = second compound 0.1 µM, first compound 0.0316 µM
[6] = second compound 0.1 µM, first compound 0.1 µM
[7] = second compound 0.316 µM, first compound 0.0316 µM
[8] = second compound 0.316 µM, first compound 0.1 µM
[9] = second compound 1 µM, first compound 0.0316 µM
[10] = second compound 1 µM, first compound 0.1 µM
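Also: spheroids exposed to compounds for seven days before readout.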
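For viability, T/C in this document: T/C percent relative to DMSO vehicle wells set as 100% viability.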

Cn1ncc(Cl)c1-c1cc(C(=O)NC(CN)Cc2cccc(F)c2)sc1Cl (stereo not given) + CCN1CCN(Cc2ccc(Nc3ncc(F)c(-c4cc(F)c5nc(C)n(C(C)C)c5c4)n3)nc2)CC1
IC50 (second compound 0.01 µM): 643 nM | IC50 (second compound 0.0316 µM): 401 nM | IC50 (second compound 0.1 µM): 372 nM | IC50 (second compound 0.316 µM): 349 nM | IC50 (second compound 1 µM): 278 nM | viability, T/C [1]: 88% | viability, T/C [2]: 67.6% | viability, T/C (second compound 0.01 µM, first compound 0.316 µM): 59.3% | viability, T/C (second compound 0.01 µM, first compound 1 µM): 49.3% | viability, T/C (second compound 0.01 µM, first compound 3.16 µM): 21.5% | viability, T/C (second compound 0.01 µM, first compound 10 µM): 0.13% | viability, T/C [3]: 86.1% | viability, T/C [4]: 63.7% | viability, T/C (second compound 0.0316 µM, first compound 0.316 µM): 51.3% | viability, T/C (second compound 0.0316 µM, first compound 1 µM): 45.9% | viability, T/C (second compound 0.0316 µM, first compound 3.16 µM): 13.3% | viability, T/C (second compound 0.0316 µM, first compound 10 µM): 0.13% | viability, T/C [5]: 86.3% | viability, T/C [6]: 68.8% | viability, T/C (second compound 0.1 µM, first compound 0.316 µM): 44.4% | viability, T/C (second compound 0.1 µM, first compound 1 µM): 46.4% | viability, T/C (second compound 0.1 µM, first compound 3.16 µM): 13.5% | viability, T/C (second compound 0.1 µM, first compound 10 µM): 0.13% | viability, T/C [7]: 86.1% | viability, T/C [8]: 70% | viability, T/C (second compound 0.316 µM, first compound 0.316 µM): 41.9% | viability, T/C (second compound 0.316 µM, first compound 1 µM): 48.7% | viability, T/C (second compound 0.316 µM, first compound 3.16 µM): 7.04% | viability, T/C (second compound 0.316 µM, first compound 10 µM): 0.12% | viability, T/C [9]: 77.9% | viability, T/C [10]: 71.5% | viability, T/C (second compound 1 µM, first compound 0.316 µM): 37.4% | viability, T/C (second compound 1 µM, first compound 1 µM): 40.1% | viability, T/C (second compound 1 µM, first compound 3.16 µM): 1.07% | viability, T/C (second compound 1 µM, first compound 10 µM): 0.17%

Cn1ncnc1[C@H]1c2n[nH]c(=O)c3cc(F)cc(c23)N[C@@H]1c1ccc(F)cc1 + CCN1CCN(Cc2ccc(Nc3ncc(F)c(-c4cc(F)c5nc(C)n(C(C)C)c5c4)n3)nc2)CC1
IC50 (second compound 0.01 µM): > 100 nM | IC50 (second compound 0.0316 µM): > 100 nM | IC50 (second compound 0.1 µM): > 100 nM | IC50 (second compound 0.316 µM): > 100 nM | IC50 (second compound 1 µM): > 100 nM | viability, T/C (second compound 0.01 µM, first compound 0.000316 µM): 104% | viability, T/C (second compound 0.01 µM, first compound 0.001 µM): 98% | viability, T/C (second compound 0.01 µM, first compound 0.00316 µM): 99.2% | viability, T/C (second compound 0.01 µM, first compound 0.01 µM): 97.3% | viability, T/C [1]: 91.2% | viability, T/C [2]: 88.8% | viability, T/C (second compound 0.0316 µM, first compound 0.000316 µM): 94% | viability, T/C (second compound 0.0316 µM, first compound 0.001 µM): 91.4% | viability, T/C (second compound 0.0316 µM, first compound 0.00316 µM): 79.9% | viability, T/C (second compound 0.0316 µM, first compound 0.01 µM): 86.1% | viability, T/C [3]: 92.6% | viability, T/C [4]: 83.4% | viability, T/C (second compound 0.1 µM, first compound 0.000316 µM): 79.5% | viability, T/C (second compound 0.1 µM, first compound 0.001 µM): 88.8% | viability, T/C (second compound 0.1 µM, first compound 0.00316 µM): 73% | viability, T/C (second compound 0.1 µM, first compound 0.01 µM): 75.2% | viability, T/C [5]: 74.4% | viability, T/C [6]: 84.3% | viability, T/C (second compound 0.316 µM, first compound 0.000316 µM): 85.6% | viability, T/C (second compound 0.316 µM, first compound 0.001 µM): 80.6% | viability, T/C (second compound 0.316 µM, first compound 0.00316 µM): 67.7% | viability, T/C (second compound 0.316 µM, first compound 0.01 µM): 86.8% | viability, T/C [7]: 84.1% | viability, T/C [8]: 76.7% | viability, T/C (second compound 1 µM, first compound 0.000316 µM): 82.2% | viability, T/C (second compound 1 µM, first compound 0.001 µM): 72.7% | viability, T/C (second compound 1 µM, first compound 0.00316 µM): 43.4% | viability, T/C (second compound 1 µM, first compound 0.01 µM): 68.9% | viability, T/C [9]: 74.4% | viability, T/C [10]: 80.2%
